pIC50: −log10 of the molar value.

One assay concerns H1048 cells. Nature of the assay: Growth inhibition and isobologram/combination index, H1048. To be noted: for pIC50: H1048, 5 days, alone; for effect of combination with 30C10-PBD: H1048 cells. Format: cell-based, human. As to the method: (§1) Two SCLC cell lines H526 and H1048, which expresses ˜2,500 copies of TMEFF1 on the cell surface per cell, were seeded onto 96 well plates at 2,000 cells/well on the day of treatment. To distinguish synergy from additivity of the combination of 30C10-PBD with niraparib (selleckchem, Cat # S2741), etoposide (Cell Signaling Technology, Cat #2200S) or cisplatin (Sigma, Cat # P4394), for each combination, a specific isobologram was constructed and the combination-index was calculated as described by Chou, TC and Talalay P (Quanttative analysis of dose-effect relationships: the combined effects of multiple drugs or enzyme inhibitors, Adv Enzyme Regul, 1984). IC50 value was defined as the drug concentration reducing by 50% the growth of treated cells compared with control. IC50 values of each drug was determined by plating H526 or H1048 cells and adding 30C10-PBD, niraparib, etoposide or cisplatin at 10-fold dilutions spanning their probable range of activity. Concentrations ranging from 0.0001-1 ug/ml were used for 30C10-PBD, from 0.01 to 100 uM for Niraparib, from 0.001-10 uM for etoposide and from 0.01-100 uM for cisplatin. Cell viability was measured 5 days later by CellTiter Glo® Luminescent Cell viability Assay™ (Promega, Madison, Wis.) according to manufacturer's instructions. Each IC50 was graphically derived from the growth curve graphed by Prism™ showing percent survival vs log drug concentrations.
(§2) Combination-index (CI) was defined as follows: CI=[C]A50/IC50A+[C]B50/IC50B, where [C]A50 and [C]B50 are the concentrations in combination inducing the IC50 effect. A CI of less than, equal to, or more than 1 indicates, respectively, synergy, additivity, or antagonism.
(§3) The 50% growth-inhibitory activity of the drug combinations was measured after 5 days of treatment. The line of additivity for the isobologram was constructed by interpolating the two points corresponding to the IC50 of the two drugs alone. Graphically, synergy, additivity, and antagonism are indicated by a point plotted below, on, or above the line of additivity, respectively.

For the next assay, the system named is H526 cells. In words: Growth inhibition and isobologram/combination index, H526. It counts as cell-based, human. To be noted: for pIC50: H526, 5 days, alone; for effect of combination with 30C10-PBD: H526 cells. On the procedure: as §1, §2, §3
Setting [1] is: H1048, combination with 30C10-PBD 0.1 ng/ml.
The mark [2] stands for this setting: H1048, combination with 30C10-PBD 0.3 ng/ml.
Setting [3] is: H526, combination with 30C10-PBD 0.3 ng/ml.
Where [4] appears, read: H526, combination with 30C10-PBD 0.6 ng/ml.

Turning to `COc1cc([C@@H]2c3cc4c(cc3[C@@H](O[C@@H]3O[C@@H]5CO[C@@H](C)O[C@H]5[C@H](O)[C@H]3O)[C@H]3COC(=O)[C@H]23)OCO4)cc(OC)c1O` [Etoposide, etoposide], the pIC50 in the assay on H1048 cells was 6.80; with H526 cells, 6.48. For the same molecule, the CI in the assay on H1048 cells (setting [1]) was 0.932; in the assay on H1048 cells (setting [2]) it was 0.998; with H526 cells (setting [3]), 0.847; in the assay on H526 cells (setting [4]), 0.801. Further, the effect result in the assay on H1048 cells (setting [1]) is reported as “synergy (A CI of less than, equal to, or more than 1 indicates, respectively, synergy, additivity, or antagonism)”; in the assay with H1048 cells (H1048, combination with 30C10-PBD 0.1 ng/ml, listed as etoposide) it was “synergistic effect”; in the assay with H1048 cells (setting [2]), “additive”; in the assay with H1048 cells (H1048, combination with 30C10-PBD 0.3 ng/ml, listed as etoposide), “additive effect”; in the assay on H526 cells (setting [3]) it was “synergy (A CI of less than, equal to, or more than 1 indicates, respectively, synergy, additivity, or antagonism)”; in the assay with H526 cells (setting [4]) it was “synergy (A CI of less than, equal to, or more than 1 indicates, respectively, synergy, additivity, or antagonism)”. Further, in the assay on H526 cells, the “effect of combination with 30C10-PBD” value is “synergistic effect”.

Take `N.N.[Cl][Pt][Cl]` [Cisplatin, cisplatin]: the pIC50 in the assay on H1048 cells was 6.21; in the assay on H526 cells, 6.62. In addition, the CI worked out at 0.985 with H1048 cells (setting [1]), 1.008 in the assay on H1048 cells (setting [2]), 0.865 in the assay with H526 cells (setting [3]) and 0.703 in the assay with H526 cells (setting [4]). Also, the effect result is listed as “additive” in the assay on H1048 cells (setting [1]); “additive” with H1048 cells (setting [2]); “synergy (A CI of less than, equal to, or more than 1 indicates, respectively, synergy, additivity, or antagonism)” with H526 cells (setting [3]); “synergy (A CI of less than, equal to, or more than 1 indicates, respectively, synergy, additivity, or antagonism)” in the assay with H526 cells (setting [4]). In addition, the results for the “effect of combination with 30C10-PBD” value in the assay on H1048 cells and with H526 cells were “additive effects” and “synergistic effects”, respectively.

Turning to `NC(=O)c1cccc2cn(-c3ccc([C@@H]4CCCNC4)cc3)nc12` [Niraparib, niraparib], the CI with H1048 cells (setting [1]) turned out to be 0.949; in the assay with H1048 cells (setting [2]), 0.888; in the assay with H526 cells (setting [3]) it was 0.762; in the assay on H526 cells (setting [4]), 0.619. The effect entry with H1048 cells (setting [1]) is given as “synergy (A CI of less than, equal to, or more than 1 indicates, respectively, synergy, additivity, or antagonism)”; with H1048 cells (setting [2]), “synergy (A CI of less than, equal to, or more than 1 indicates, respectively, synergy, additivity, or antagonism)”; in the assay on H526 cells (setting [3]) it was “synergy (A CI of less than, equal to, or more than 1 indicates, respectively, synergy, additivity, or antagonism)”; with H526 cells (setting [4]), “synergy (A CI of less than, equal to, or more than 1 indicates, respectively, synergy, additivity, or antagonism)”. For the same molecule, the “effect of combination with 30C10-PBD” value with H1048 cells and in the assay with H526 cells was “Synergistic effect” throughout. The pIC50 with H1048 cells (Homo sapiens, NCI-H1048, 120 h) was 5.97; in the assay with H526 cells (Homo sapiens, NCI-H526, 120 h), 5.49.

The record behind these values is US11312769B2, “Anti-TMEFF1 antibodies and antibody drug conjugates” (Bluefin BioMedicine, Inc., priority 2017, dated 2022).
